Measurements as given in patent US20140187627A1, “USES OF C15-SUBSTITUTED ANDROGRAPHOLIDE DERIVATIVES IN THE PREPARATION OF ANTI-HEPATITIS B VIRUS MEDICAMENT” (ZHENGZHOU UNIVERSITY, priority 2011, published 2014).
Values joined by “and” are separate entries in the source; they are usually repeats but may differ in a detail not shown here. Equal entries are not always repeated.

What was measured:
[1] = test system: HBV; settings: cited from earlier work
[2] = test system: HBV surface antigen (HBsAg) of HBV-transfected HepG2.2.15 cell line; experiment: Inhibition of HBsAg secretion in culture supernatant of HepG2.2.15 cells (ELISA), with MTT cytotoxicity for therapeutic index; assay type: cell-based, Hepatitis B virus
Description: HepG2.2.15 cell line, stably transfected with HBV-DNA, was used to evaluate the inhibition of the compounds against the HBV surface antigen (HBsAg) level in the culture supernatant of HepG2.2.15 cell. HepG2.2.15 cells were seeded at a density of 1.25×10^4 cells/well into 48-well plates, 0.5 ml RPMI1640 medium containing 10% fetal bovine serum, 100 unit/ml penicillin, 100 μg/ml streptomycin and 380 μg/ml geneticin (G418) was added to the well. Cells were incubated at 37° C. in a humidified incubator of 5% CO2 for 24 h, and then the culture medium was replaced by fresh medium containing Lamivudine (the positive drug) and compounds of this invention at five concentrations. The culture medium was replaced by a fresh one after 3 days and 6 days incubation, respectively. On d9, the supernatant was collected to determine the HBsAg level and the cells were used to assay the viability by MTT method.
Add 100 μl PBS solution containing 0.5 mg/ml MTT [3-(4,5-dimethylthiazol-2-yl)-2,5diphenyltetrazolium bromide] to the well after removing the supernatant, incubate at 37° C. for 4 h, remove the medium, add […] of DMSO to each well and the plates were shaken for 10 min. The optical density value (A) of each well was read using a PowerWaveX Microplate Scanning Spectrophotometer (Bio-tek Instruments, Inc) at 490 nm. Cells survival rate was calculated. […]

## C=C1CCC2C(C)(COC(=O)c3cccnc3)C(OC(=O)c3cccnc3)CCC2(C)C1C=CC1=CC(=Cc2ccc(Cl)cc2)OC1=O (stereo not drawn) [15-p-chlorobenzylidene-14-deoxy-11, 12-didehydro-3, 19-dinicotinate-andrographolide]
[1]
  Anti-HBV effect in vitro: anti-HBV effect in vitro

## Nc1ccn([C@@H]2CS[C@H](CO)O2)c(=O)n1 [Lamivudine]
[2]; HepG2.2.15 cells, treated for 9d, TC50 by MTT
  Therapeutic index (TI = TC50/IC50): greater than 2
[2]; Hepatitis B virus, HepG2.2.15, 216 h, read-out: IC50 against HBsAg secretion
  IC50: ~10 µg/mL and ~43.7 µM
